Assay results as given in US12383479B2 (LG HOUSEHOLD & HEALTH CARE LTD., priority 2021, dated 2025).
Values after ≈ are worked out from the molar mass of the structure shown.

Legend:
[1] = Experimental Example 1: solubility of palmitoylethanolamide in each polyol solvent; assay type: physicochemical; conditions: 25° C. for 24 hours
From the text: Polyols representatively used as solvents of cosmetics were chosen, which were propanediol, glycerin, […], 2,3-butanediol, pentylene glycol, dipropylene glycol, propylene glycol, butylene glycol, ethoxydiglycerol, and 1,2-hexanediol.

[2] = Experimental Example 2: solubility of palmitoylethanolamide with combined use of selected solvents and 2,3-butanediol; assay type: physicochemical; conditions: 1 wt % palmitoylethanolamide, 25° C. for 4 weeks, regardless of weight ratio
[3] = 25° C.; cited from earlier work
[4] = 0.5 wt % and 1 wt % palmitoylethanolamide

In the case of CCCCCCCCCCCCCCCC(=O)NCCO [palmitoylethanolamide, N-(2-hydroxyethyl)hexadecanamide], the “solubility in 1,2-hexanediol” value [1, 4] is reported as “good solubility”, the “solubility in pentylene glycol” value [1, 4] is reported as “good solubility” and the “solubility in the remaining polyols” value ([1]; propanediol, glycerin, ethanol, 2,3-butanediol, dipropylene glycol, propylene glycol, butylene glycol, ethoxydiglycerol, 0.5 and 1 wt %) is reported as “precipitation”. The “solubility in 1,2-hexanediol combined with 2,3-butanediol” value [2] was “dissolved”, the “solubility in pentylene glycol combined with 2,3-butanediol” value [2] was “dissolved” and the water solubility [3] was 0.4431 µg/mL (≈ 1.48 µM).
